Measured values from ChEMBL document CHEMBL4425165, “Discovery of Pyrazolo[1,5-a]pyrimidine TTK Inhibitors: CFI-402257 is a Potent, Selective, Bioavailable Anticancer Agent” (ACS Med Chem Lett, 2016).
In brackets after ≈: the same amount, converted by molar mass.

Assays:
[1] = system: MDA-MB-468; test: Growth inhibition of human MDA-MB-468 cells measured after 5 days by sulforhodamine B assay; assay type: functional; conditions: MDA-MB-468, 120 h
[2] = system: HCT-116; test: Growth inhibition of human HCT116 cells measured after 5 days by sulforhodamine B assay; assay type: functional; conditions: HCT-116, 120 h
[3] = system: OVCAR-3; test: Growth inhibition of human OVCAR3 cells measured after 5 days by sulforhodamine B assay; assay type: functional; conditions: OVCAR-3, 120 h
[4] = Solubility of the compound at pH 7.4; assay type: physicochemical; conditions: buffer
[5] = Solubility of the compound at pH 2; assay type: physicochemical; conditions: buffer
[6] = Dissociation constant, pKa of the compound; assay type: physicochemical
[7] = Cmax in athymic CD-1 nude mouse at 10 mg/kg, po by LC-MS/MS analysis; assay type: ADME, organism-based; set-up: dose 10 mg/kg, route oral; conditions: in vivo
[8] = AUC in athymic CD-1 nude mouse at 10 mg/kg, po by LC-MS/MS analysis; assay type: ADME, organism-based; conditions: in vivo
[9] = target: T1, Cytochrome P450 3A4 (Homo sapiens, UniProt P08684); test: Inhibition of CYP3A4 (unknown origin) preincubated for 10 mins followed by addition of BFC as substrate measured after 10 mins in presence of NADP by fluorescence analysis; assay type: ADME
[10] = Clearance in Sprague-Dawley rat at 1 mg/kg, iv or 5 mg/kg, po by LC-MS/MS analysis; assay type: ADME, organism-based; conditions: in vivo
[11] = AUC (0 to infinity) in Sprague-Dawley rat at 5 mg/kg, po by LC-MS/MS analysis; assay type: ADME, organism-based; set-up: dose 5 mg/kg, time infinity, route oral; conditions: in vivo
[12] = Bioavailability in Sprague-Dawley rat at 5 mg/kg by LC-MS/MS analysis; assay type: ADME, organism-based; conditions: in vivo
[13] = Clearance in beagle dog at 1 mg/kg, iv or 5 mg/kg, po by LC-MS/MS analysis; assay type: ADME, organism-based, Canis lupus familiaris; conditions: in vivo
[14] = AUC (0 to infinity) in beagle dog at 5 mg/kg, po by LC-MS/MS analysis; assay type: ADME, organism-based, Canis lupus familiaris; set-up: dose 5 mg/kg, route oral, time infinity; conditions: in vivo
[15] = Bioavailability in beagle dog at 5 mg/kg by LC-MS/MS analysis; assay type: ADME, organism-based, Canis lupus familiaris; conditions: in vivo
[16] = system: HCT-116; test: Antitumor activity against human HCT116 cells xenografted in athymic nude mouse assessed as tumor growth inhibition at 6.5 mg/kg, po qd measured on day 21; assay type: functional; conditions: HCT-116, po, 504 h, read-out: TGI
[17] = system: HT-29; test: Antitumor activity against human HT-29 cells xenografted in athymic nude mouse assessed as tumor growth inhibition at 6.5 mg/kg, po qd measured on day 21; assay type: functional; conditions: HT-29, po, 504 h, read-out: TGI
[18] = target: T2, Cytochrome P450 1A2 (Homo sapiens, UniProt P05177); test: Inhibition of CYP1A2 (unknown origin) preincubated for 10 mins followed by addition of CEC as substrate measured after 15 mins in presence of NADP by fluorescence analysis; assay type: ADME
T2 sequence (P05177 whole entry): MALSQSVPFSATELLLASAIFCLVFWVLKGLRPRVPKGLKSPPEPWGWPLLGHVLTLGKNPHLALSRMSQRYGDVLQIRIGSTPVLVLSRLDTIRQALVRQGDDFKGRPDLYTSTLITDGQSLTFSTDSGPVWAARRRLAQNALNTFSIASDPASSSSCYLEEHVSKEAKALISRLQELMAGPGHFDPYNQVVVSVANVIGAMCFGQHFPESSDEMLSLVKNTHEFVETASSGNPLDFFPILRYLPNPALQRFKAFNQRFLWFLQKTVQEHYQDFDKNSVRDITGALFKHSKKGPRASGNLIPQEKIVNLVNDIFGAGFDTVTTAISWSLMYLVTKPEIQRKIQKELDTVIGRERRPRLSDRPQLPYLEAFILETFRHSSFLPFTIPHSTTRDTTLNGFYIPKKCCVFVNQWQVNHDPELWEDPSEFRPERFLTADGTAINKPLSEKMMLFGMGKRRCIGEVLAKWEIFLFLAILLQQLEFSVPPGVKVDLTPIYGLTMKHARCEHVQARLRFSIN

[19] = target: Cytochrome P450 2D6 (Homo sapiens, UniProt P10635); test: Inhibition of CYP2D6 (unknown origin) preincubated for 10 mins followed by addition of AMMC as substrate measured after 30 mins in presence of NADP by fluorescence analysis; assay type: ADME
[20] = system: HCT-116; test: Antitumor activity against human HCT116 cells xenografted in athymic nude mouse assessed as tumor growth inhibition measured on day 21 relative to vehicle-treated control; assay type: functional
[21] = target: Cytochrome P450 2C9 (Homo sapiens, UniProt P11712); test: Inhibition of CYP2C9 (unknown origin) preincubated for 10 mins followed by addition of MFC as substrate measured after 45 mins in presence of NADP by fluorescence analysis; assay type: ADME
[22] = target: Cytochrome P450 2C19 (Homo sapiens, UniProt P33261); test: Inhibition of CYP2C19 (unknown origin) preincubated for 10 mins followed by addition of MFC as substrate measured after 30 mins in presence of NADP by fluorescence analysis; assay type: ADME
[23] = target: T1, Cytochrome P450 3A4; test: Inhibition of CYP3A4 (unknown origin) preincubated for 10 mins followed by addition of DBF as substrate measured after 10 mins in presence of NADP by fluorescence analysis; assay type: ADME
[24] = system: HCT-116; test: Antitumor activity against human HCT116 cells xenografted in athymic nude mouse assessed as tumor growth inhibition at 5.5 mg/kg, po qd measured on day 21; assay type: functional; conditions: HCT-116, po, 504 h, read-out: TGI
[25] = Toxicity in po dosed athymic nude mouse xenografted with human HCT116 cells assessed as weight loss measured on day 21; assay type: organism-based; conditions: in vivo
[26] = Toxicity in po dosed athymic nude mouse xenografted with human HCT116 cells assessed as induction of overt adverse signs measured on day 21; assay type: organism-based; conditions: in vivo
[27] = Toxicity in po dosed athymic nude mouse; assay type: organism-based; conditions: in vivo
[28] = Drug uptake in po dosed mouse plasma; assay type: ADME, organism-based; conditions: in vivo
[29] = target: T3, Dual specificity protein kinase TTK (Homo sapiens, UniProt P33981)
T3 sequence (P33981 whole entry): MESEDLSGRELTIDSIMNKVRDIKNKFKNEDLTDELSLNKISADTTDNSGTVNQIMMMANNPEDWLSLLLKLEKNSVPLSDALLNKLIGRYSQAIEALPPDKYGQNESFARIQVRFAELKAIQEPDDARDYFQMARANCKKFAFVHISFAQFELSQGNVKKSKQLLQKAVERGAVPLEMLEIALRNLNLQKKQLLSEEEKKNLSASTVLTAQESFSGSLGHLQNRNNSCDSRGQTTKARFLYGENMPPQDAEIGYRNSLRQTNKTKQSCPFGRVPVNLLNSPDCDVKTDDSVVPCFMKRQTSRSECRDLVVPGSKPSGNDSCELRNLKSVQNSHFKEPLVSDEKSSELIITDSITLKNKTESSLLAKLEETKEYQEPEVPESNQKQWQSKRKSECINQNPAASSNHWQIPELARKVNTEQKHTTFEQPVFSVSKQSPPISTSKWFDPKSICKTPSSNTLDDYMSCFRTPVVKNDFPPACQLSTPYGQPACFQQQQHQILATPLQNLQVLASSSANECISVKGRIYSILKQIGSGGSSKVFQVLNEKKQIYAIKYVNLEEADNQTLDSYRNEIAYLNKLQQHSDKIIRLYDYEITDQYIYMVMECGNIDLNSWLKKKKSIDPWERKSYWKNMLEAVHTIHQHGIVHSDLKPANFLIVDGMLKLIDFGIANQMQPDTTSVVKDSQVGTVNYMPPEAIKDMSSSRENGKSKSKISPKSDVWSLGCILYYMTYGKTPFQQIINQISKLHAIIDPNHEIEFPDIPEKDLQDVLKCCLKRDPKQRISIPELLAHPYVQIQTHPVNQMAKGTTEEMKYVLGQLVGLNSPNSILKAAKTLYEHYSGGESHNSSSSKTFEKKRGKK

[30] = system: HCT-116; test: Antitumor activity against human HCT116 cells xenografted in athymic nude mouse assessed as tumor growth inhibition at 15 mg/kg, po qd measured on day 21; assay type: functional; conditions: HCT-116, po, 504 h, read-out: TGI
[31] = system: HT-29; test: Antitumor activity against human HT-29 cells xenografted in athymic nude mouse assessed as tumor growth inhibition at 15 mg/kg, po qd measured on day 21; assay type: functional; conditions: HT-29, po, 504 h, read-out: TGI

T1 sequence (P08684 whole entry): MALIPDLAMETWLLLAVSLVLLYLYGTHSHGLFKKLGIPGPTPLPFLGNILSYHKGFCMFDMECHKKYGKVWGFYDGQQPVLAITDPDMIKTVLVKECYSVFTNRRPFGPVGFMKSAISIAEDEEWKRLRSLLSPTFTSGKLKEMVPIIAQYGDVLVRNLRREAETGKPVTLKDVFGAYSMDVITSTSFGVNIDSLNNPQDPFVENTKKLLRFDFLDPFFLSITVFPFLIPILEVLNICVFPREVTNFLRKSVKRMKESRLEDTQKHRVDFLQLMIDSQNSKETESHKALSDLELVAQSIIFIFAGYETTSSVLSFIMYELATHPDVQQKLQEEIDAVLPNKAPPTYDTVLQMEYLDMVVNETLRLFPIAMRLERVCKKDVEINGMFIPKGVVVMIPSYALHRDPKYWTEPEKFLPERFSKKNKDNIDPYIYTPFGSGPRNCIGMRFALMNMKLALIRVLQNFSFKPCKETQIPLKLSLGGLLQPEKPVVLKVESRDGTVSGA
Chain of Cytochrome P450 2C9 (P11712 whole entry): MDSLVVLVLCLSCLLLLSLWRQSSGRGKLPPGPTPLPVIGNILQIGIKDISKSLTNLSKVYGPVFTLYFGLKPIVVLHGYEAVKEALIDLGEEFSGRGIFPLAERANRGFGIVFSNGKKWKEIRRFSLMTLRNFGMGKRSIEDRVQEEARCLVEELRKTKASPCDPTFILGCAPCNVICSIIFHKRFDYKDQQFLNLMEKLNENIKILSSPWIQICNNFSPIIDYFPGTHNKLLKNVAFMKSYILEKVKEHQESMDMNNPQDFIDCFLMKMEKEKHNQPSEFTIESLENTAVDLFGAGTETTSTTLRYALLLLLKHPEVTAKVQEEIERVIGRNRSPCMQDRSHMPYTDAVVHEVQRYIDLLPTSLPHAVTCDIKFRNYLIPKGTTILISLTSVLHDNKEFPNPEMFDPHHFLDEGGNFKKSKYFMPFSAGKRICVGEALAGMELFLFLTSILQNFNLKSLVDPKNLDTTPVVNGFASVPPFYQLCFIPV
Chain of Cytochrome P450 2D6 (P10635 whole entry): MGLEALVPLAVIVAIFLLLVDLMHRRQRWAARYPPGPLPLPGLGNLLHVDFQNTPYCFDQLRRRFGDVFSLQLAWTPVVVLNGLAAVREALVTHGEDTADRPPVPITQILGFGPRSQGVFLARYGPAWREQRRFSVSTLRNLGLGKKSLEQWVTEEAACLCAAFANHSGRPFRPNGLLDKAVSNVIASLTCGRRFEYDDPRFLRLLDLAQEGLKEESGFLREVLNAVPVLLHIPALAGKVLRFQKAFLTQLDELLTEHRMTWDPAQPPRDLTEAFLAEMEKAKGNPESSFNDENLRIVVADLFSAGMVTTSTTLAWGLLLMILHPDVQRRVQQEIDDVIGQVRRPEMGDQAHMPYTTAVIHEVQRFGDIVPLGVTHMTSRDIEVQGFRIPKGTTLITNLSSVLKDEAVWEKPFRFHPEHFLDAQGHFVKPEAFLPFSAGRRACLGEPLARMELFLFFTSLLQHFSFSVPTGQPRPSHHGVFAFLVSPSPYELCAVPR
Chain of Cytochrome P450 2C19 (P33261 whole entry): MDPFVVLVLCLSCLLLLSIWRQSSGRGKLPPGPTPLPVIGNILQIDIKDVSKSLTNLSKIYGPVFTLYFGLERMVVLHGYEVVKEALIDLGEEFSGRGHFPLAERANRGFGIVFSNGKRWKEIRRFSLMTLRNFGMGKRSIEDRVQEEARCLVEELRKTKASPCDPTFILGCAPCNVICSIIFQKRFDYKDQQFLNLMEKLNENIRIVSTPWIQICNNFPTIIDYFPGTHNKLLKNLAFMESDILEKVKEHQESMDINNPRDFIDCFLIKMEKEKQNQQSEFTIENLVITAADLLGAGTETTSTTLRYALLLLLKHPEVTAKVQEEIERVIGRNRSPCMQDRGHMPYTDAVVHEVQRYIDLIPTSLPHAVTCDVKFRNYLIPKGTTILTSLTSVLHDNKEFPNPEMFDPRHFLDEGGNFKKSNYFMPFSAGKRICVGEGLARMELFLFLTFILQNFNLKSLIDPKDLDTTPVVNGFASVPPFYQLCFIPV

| SMILES | GI50 [1] [nM] | GI50 [2] [nM] | GI50 [3] [nM] | solubility [4] [µg/mL] | solubility [5] [µg/mL] | pKa [6] | Cmax [7] [ng/mL] | AUC [8] [ng·h/mL] | IC50 [9] [nM] | clearance [10] [mL/min/kg] | AUC(0-inf) [11] [ng·h/mL] | bioavailability [12] [%] | clearance [13] [mL/min/kg] | AUC(0-inf) [14] [ng·h/mL] | bioavailability [15] [%] | inhibition in vivo at 6.5 mg/kg [16] [%] | inhibition in vivo at 6.5 mg/kg [17] [%] | MTD [27] [mg/kg] | IC50 [29] [nM] | inhibition in vivo at 15 mg/kg [30] [%] | other results |
| --- | --- | --- | --- | --- | --- | --- | --- | --- | --- | --- | --- | --- | --- | --- | --- | --- | --- | --- | --- | --- | --- |
| Cc1cc(-c2cnn3c(NC[C@H]4C[C@@](C)(O)C4)cc(Oc4cccnc4)nc23)ccc1C(=O)NC1CC1 [LUVIXASERTIB] | 2 | 2 | 4 | 3.3 (≈ 6.62 µM) | 560 (≈ 1120 µM) | 3.7 | 2500 | 7500 | 510 | 14 | 3400 | 53 | 4.9 | 25000 | 114 | 68 | 60 | 6.5 |  |  | IC50 [18]: Not Active; IC50 [19]: Not Active; TGI [20]: Dose-dependent effect; IC50 [21]: 13000 nM; IC50 [22]: 8000 nM; IC50 [23]: 14000 nM; inhibition in vivo at 5.5 mg/kg [24]: 68%; Activity [25]: < 10%; Activity [26]: Non-Toxic |
| Cc1cc(-c2cnn3c(NCCN4CCOCC4)cc(Oc4cccc(F)c4)nc23)ccc1C(=O)NC1CC1 | 20 | 1 | 260 | 1.5 (≈ 2.83 µM) | 11000 (≈ 20700 µM) | 6.7 | 1200 | 3600 | 780 | 34 | 1900 | 77 | 29 | 2200 | 77 | 72 | 41 | 6.5 | 2.2 |  | Drug uptake [28]: Dose-dependent effect |
| Cc1cc(-c2cnn3c(NCC4CCOCC4)cc(N[C@@H](C4CC4)C(C)(C)O)nc23)ccc1C(=O)NC1CC1 | 60 | 20 | 80 | 10 (≈ 18.8 µM) | 470 (≈ 882 µM) | 3.5 | 5500 | 20000 | 3000 | 66 | 490 | 38 | 13 | 6900 | 98 |  |  | 15 | 7 | 70 | inhibition in vivo at 15 mg/kg [31]: 38% |
| Cc1cc(-c2cnn3c(NCC4CC4)cc(NC4CCCC[C@H]4O)nc23)ccc1C(=O)NC1CC1 (single isomer, unassigned) | 20 | 9 | 15 | 5.3 (≈ 11.2 µM) | 170 (≈ 358 µM) | 3.4 | 1700 | 3100 | 2000 | 22 | 3700 | 94 | 7.9 | 14000 | 95 |  |  | 15 | 2.2 | 72 | inhibition in vivo at 15 mg/kg [31]: 53% |
